In patent US5314877A, “Water-soluble pentacyclic triterpene composition and method for producing the same” (Hokkaido Sugar Co., Ltd., priority 1990, dated 1994):
“Also recorded” adds a separate entry of the source.

Assay: Pharmacological function of triterpenes (earlier experiments and reports)
Conditions: inventors' experiments, no data given

Structure (SMILES): CC1(C)CC[C@]2(C(=O)O)CC[C@]3(C)C(=CC[C@@H]4[C@@]5(C)CC[C@H](O)C(C)(C)[C@@H]5CC[C@]43C)[C@@H]2C1 [oleanolic acid, Oleanolic acid]
- Pharmacological function of oleanolic acid from sugar beet: antibiosis to a tumor and hepatitis; also recorded: cariostatic (insoluble glucanynthesis inhibition)
